From patent US11053226B2, “KRAS G12C inhibitors and methods of using the same” (Amgen Inc., priority 2018, dated 2021) come the findings set out here.

SMILES strings stand for the structures. Read-outs that look alike come from different tables or passages of the source.

This test addresses GDP-bound KRAS protein (aa 1-169), containing both G12C and C118A amino acid substitutions (Homo sapiens (Human), UniProt P01116, C118A/G12C). Briefly: Coupled Nucleotide Exchange Assay. Format: biochemical. The conditions noted are these: read-out: Coupled Exchange IC50. The procedure: For compounds in Table 9, the following assay conditions were employed:
Coupled Nucleotide Exchange Assay:
The assay plates were then read on a PerkinElmer EnVision Multilabel Reader, using AlphaScreen® technology, and data were analyzed using a 4-parameter logistic model to calculate IC50 values.

Where [1] appears, read: third Coupled Exchange column, compound pre-incubation probably 20 hours (rest of head not shown; b435 lists 5 min, 2 hours or 20 hours).
Where [2] appears, read: first Coupled Exchange column, compound pre-incubation probably 5 min (rest of head not shown; b435 lists 5 min, 2 hours or 20 hours).

Chain of GDP-bound KRAS protein (aa 1-169), containing both G12C and C118A amino acid substitutions (P01116 other isoform, or with tags, fused parts or gaps G12C/C118A): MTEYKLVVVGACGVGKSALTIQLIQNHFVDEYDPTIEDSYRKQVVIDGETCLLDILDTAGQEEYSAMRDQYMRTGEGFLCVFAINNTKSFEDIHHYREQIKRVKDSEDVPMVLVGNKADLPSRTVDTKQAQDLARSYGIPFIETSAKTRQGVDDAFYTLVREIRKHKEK

As for `C=CC(=O)N1CC(NC(=O)Cn2c(C)c(-c3cccnc3Br)c3cc(Cl)ccc32)C1` [Example 305], the IC50 – broadly, the concentration that gives 50% inhibition – reads like this: (second Coupled Exchange column) 2.98 µM; under setting [1], 0.81 µM.
For the molecule `C=CC(=O)N1CC(NC(=O)Cn2c(C)c(-c3ncccc3Cl)c3cc(Cl)ccc32)C1` [Example 306], the 50% inhibitory concentration (IC50) amounted to 9.53 µM (second Coupled Exchange column) and 1.64 µM under setting [1].
As for `C=C(CCO)C(=O)N1CC(NC(=O)Cn2c(C)c(C(=O)N3CCc4c(cccc4OC)C3)c3cc(Br)ccc32)C1` [Example 313], the IC50 (second Coupled Exchange column) was more than 250 µM.
The same measure, in the same setting: for `C=CC(=O)N1CC(NC(=O)Cn2c(C)c(-c3cnccc3C#N)c3cc(Cl)ccc32)C1` [Example 314] the value was 11.7 µM; for `C=CC(=O)N1CC(NC(=O)Cn2c(C)c(CN3CCN(c4ccc(C#N)cn4)CC3)c3cc(Br)ccc32)C1` [Example 315], 6.22 µM.
The same measure, in the same setting: the result for `C=CC(=O)N1CC(NC(=O)Cn2ccc3c(Cl)c(Cl)ccc32)C1` [Example 317] reads 15.5 µM.
For `C=CC(=O)N1CC(NC(=O)Cn2c(C)c(-c3ccccc3C(C)(C)C)c3cc(Cl)ccc32)C1` [Example 318], the half-maximal inhibitory concentration (IC50) under setting [2] came out at 16.2 µM and the IC50 (second Coupled Exchange column) is 98.9 µM.
With `C=CC(=O)N1CC(NC(=O)Cn2cc(CC(=O)N3CCCC4(CCCN(C)C4)C3)c3cc(Br)ccc32)C1` (centres unmarked) [Example 322], the IC50 (second Coupled Exchange column) was found to be 2.07 µM.
Take `C=CC(=O)N1CC(NC(=O)Cn2c(C3CC3)c(-c3cnccc3C(C)C)c3cc(Cl)cc(C)c32)C1` [Example 324]: the IC50 under setting [2] was found to be 2.42 µM.
The same measure, in the same setting: the result for `C=CC(=O)N1CC(NC(=O)Cn2c(C)c(-c3cnccc3C(C)C)c3cc(Cl)cc(C)c32)C1` [Example 325] reads 1.55 µM; that for `C=CC(=O)N1CC(NC(=O)Cn2cc(CC(=O)N3CCCCC3CN3CCCCC3)c3cc(Br)ccc32)C1` (centres unmarked) [Example 326], 26.1 µM; that for `C=CC(=O)N1CC(NC(=O)Cn2cc(CC(=O)N3CCC(c4ncc[nH]4)CC3)c3cc(Br)ccc32)C1` [Example 327], 45.9 µM.
Still for that read-out and setting: for `C=CC(=O)N1CC(NC(=O)Cn2cc(CC(=O)N3CCC4(CCOCC4)C3)c3cc(Br)ccc32)C1` [Example 328] the value was 31 µM; for `C=CC(=O)N1CC(NC(=O)Cn2cc(CC(=O)N3CCOC4CC(N(C)C)CCC43)c3cc(Br)ccc32)C1` (centres unmarked) [Example 329], 85.8 µM.
On the same count and under the same terms, for `C=CC(=O)N1CC(NC(=O)Cn2cc(CC(=O)N3CCc4ccc(C(=O)O)cc4C3)c3cc(Br)ccc32)C1` [Example 330] the value was 36.6 µM.
Take `C=CC(=O)N1CC(NC(=O)Cn2cc(CC(=O)NCC3Cc4ccccc4CN3C)c3cc(Br)ccc32)C1` (centres unmarked) [Example 331]: the IC50 under setting [2] worked out at 22.4 µM.
The same measure, in the same setting: for `C=CC(=O)N1CC(NC(=O)Cn2cc(CC(=O)N3CCc4cn[nH]c4C3)c3cc(Br)ccc32)C1` [Example 332] the value was 43.3 µM; for `C=CC(=O)N1CC(NC(=O)Cn2cc(CC(=O)N3CC4CCC3C4)c3cc(Br)ccc32)C1` (centres unmarked) [Example 333], 80.1 µM.
On to `C=CC(=O)N1CC(NC(=O)Cn2c(C)c(-c3cnccc3C3=CCC(C)CC3)c3cc(Cl)cc(C)c32)C1` (centres unmarked) [Example 334], for which the concentration for half-maximal inhibition (IC50) under setting [2] amounted to 0.37 µM.
`C=CC(=O)N1CC(NC(=O)Cn2c(C)c(-c3cnccc3C3=CCCCC3)c3cc(Cl)cc(C)c32)C1` [Example 335]: the IC50 under setting [2] amounted to 0.8 µM.
Same read-out and setting: for `C=CC(=O)N1CC(NC(=O)Cn2c(C)c(-c3ccccc3Cc3ccccc3)c3cc(Cl)cc(C)c32)C1` [Example 336] the value was 2.11 µM.
On to `C=CC(=O)N1CC(N(C)C(=O)Cn2c(C)c(-c3cnccc3C3=CCCCC3)c3cc(Cl)cc(C)c32)C1` [Example 337], for which, under setting [2], the IC50 was found to be 2.02 µM.
The same measure, in the same setting: for `C=CC(=O)N1CC(NC(=O)Cn2c(C)c(-c3cncnc3C(C)C)c3cc(Cl)cc(C)c32)C1` [Example 338] the value was 2.87 µM; for `C=CC(=O)N1CC(N(C)C(=O)Cn2c(C)c(-c3cncnc3C(C)C)c3cc(Cl)cc(C)c32)C1` [Example 339], 2.88 µM.
Consider `C=CC(=O)N1CC(NC(=O)Cn2c(C)c(-c3cnccc3C3=CCCCCC3)c3cc(Cl)cc(C)c32)C1` [Example 340], for which the IC50 under setting [2] stood at 0.89 µM.
Take `C=CC(=O)N1CC(NC(=O)Cn2c(C)c(-c3cnccc3C3=CCOCC3)c3cc(Cl)cc(C)c32)C1` [Example 341]: the IC50 under setting [2] is 2.44 µM.
The same measure, in the same setting: the result for `C=CC(=O)N1CC(NC(=O)Cn2c(C)c(-c3cncnc3C3CCCCC3)c3cc(Cl)cc(C)c32)C1` [Example 342] reads 0.66 µM.
Still for that read-out and setting: the result for `C=CC(=O)N1CC(NC(=O)Cn2c(C)c(-c3c(OC)cccc3OC)c3cc(Cl)cc(C)c32)C1` [Example 343] reads 13.6 µM; that for `C=CC(=O)N1CC(NC(=O)Cn2c(C)c(-c3cccnc3N3CCC(C)CC3)c3cc(Cl)cc(C)c32)C1` [Example 344], 0.88 µM; that for `C=CC(=O)N1CC(NC(=O)Cn2c(C)c(-c3cccnc3OCC(C)C)c3cc(Cl)cc(C)c32)C1` [Example 345], 4.43 µM.
With `C=CC(=O)N1CC(N(C)C(=O)Cn2ccc3cc(Br)ccc32)C1` [Example 346], the IC50 is, setting by setting: under setting [2], more than 250 µM; under setting [1], 2.73 µM.
With `C=CC(=O)N1CC(NC(=O)Cn2c(C)cc3cc(Br)ccc32)C1` [Example 347], the IC50 is more than 250 µM under setting [2] and 1.47 µM under setting [1].
Consider `C=CC(=O)N1CC(N(C)C(=O)Cn2c(C)cc3cc(Br)ccc32)C1` [Example 348], for which the IC50 under setting [2] is 235 µM and the IC50 under setting [1] stood at 1.22 µM.
In the same order, the values of `C=CC(=O)N1CC(NC(=O)Cn2ccc3c(C)c(Br)ccc32)C1` [Example 349] are more than 250 µM and 3.21 µM.
Turning to `C=CC(=O)N1CC(N(C)C(=O)Cn2ccc3c(C)c(Br)ccc32)C1` [Example 350], the IC50 is 237 µM under setting [2] and 1.53 µM under setting [1].
In the case of `C=CC(=O)N1CC(N(C)C(=O)Cn2ccc3cc(Br)cc(C)c32)C1` [Example 351], the IC50 is, setting by setting: under setting [2], more than 250 µM; under setting [1], 3.32 µM.
Taken in the same sequence, the figures for `C=CC(=O)N1CC(C)(NC(=O)Cn2ccc3cc(Br)ccc32)C1` [Example 352] were more than 250 µM and 25 µM.
In the same order, the values of `C=CC(=O)N1CC(CO)(NC(=O)Cn2ccc3cc(Br)ccc32)C1` [Example 353] are 182 µM and 92.6 µM.
For `C=CC(=O)N1CC(CO)(N(C)C(=O)Cn2ccc3cc(Br)ccc32)C1` [Example 354], the IC50 under setting [2] is more than 250 µM and the IC50 under setting [1] was more than 62.5 µM.
In the same order, the values of `C=CC(=O)N1CC(N(C)C(=O)Cn2cc(C)c3cc(Br)ccc32)C1` [Example 355] are 155 µM and 1.7 µM.
In the same order, the values of `C=CC(=O)N1CC(C)(N(C)C(=O)Cn2ccc3cc(Br)ccc32)C1` [Example 356] are more than 250 µM and more than 31.3 µM.
Turning to `C=CC(=O)N1CC(N(C)C(=O)Cn2ccc3cc(Br)c(C)cc32)C1` [Example 357], the IC50 is more than 250 µM under setting [2] and 6.78 µM under setting [1].
As for `C=CC(=O)N1CC(N(C)C(=O)Cn2ccc3cc(Cl)ccc32)C1` [Example 358], the IC50 is, setting by setting: under setting [2], more than 250 µM; under setting [1], 3.2 µM.
`C=CC(=O)N1CC(n2nncc2Cn2ccc3cc(Br)ccc32)C1` [Example 359]: the IC50 was more than 250 µM under setting [2] and 7.66 µM under setting [1].
Take `C=CC(=O)N1CC(NC(=O)Cn2ccc3cccc(CC#N)c32)C1` [Example 360]: the IC50 runs as follows: under setting [2], more than 250 µM; under setting [1], more than 250 µM.
As to `C=CC(=O)N1CC(NC(=O)Cn2ccc3cc(Br)ccc32)C1C` (centres unmarked) [Example 361], the IC50 was determined as 231 µM under setting [2] and 3.04 µM under setting [1].
